{
  "source": "patent US20210180138A1",
  "about": "“METHODS FOR PROGNOSIS AND TREATMENT OF SOLID TUMORS” (CUREWIZE HEALTH LTD., priority 2017, published 2021)",
  "key": {"[1]": {"tested_on": "colon cancer (Caco-2) cell line", "experiment": "Cell viability, XTT tetrazolium colorimetric assay", "format": "cell-based", "settings": "24 hours, 1 nM, 10 nM and 100 nM, vs DMSO control", "description": "(§1) FK866 is a potent NAMPT inhibitor that causes the depletion of intracellular NAD+ levels in the cell and ultimately induces apoptosis and cell death. To characterize the effect of FK866 on prostate cancer (PC-3), colon cancer (Caco-2) and breast cancer (MCF7) cell lines, the effects of FK866 on cell death were evaluated. Cells were either control cells, treated with DMSO only, or were treated for 24 hours with 1 nanomolar (nM), 10 nM and 100 nM of FK866, and cell viability was measured using an XTT tetrazolium colorimetric assay."}, "[2]": {"tested_on": "breast cancer (MCF7) cell line", "experiment": "Cell viability, XTT tetrazolium colorimetric assay", "format": "cell-based", "settings": "24 hours, 1 nM, 10 nM and 100 nM, vs DMSO control", "description": "as §1"}, "[3]": {"tested_on": "prostate cancer (PC-3) cell line", "experiment": "Cell viability, XTT tetrazolium colorimetric assay", "format": "cell-based", "settings": "24 hours, 1 nM, 10 nM and 100 nM, vs DMSO control", "description": "as §1"}, "[4]": {"tested_on": "prostate cancer PC3 cell line", "experiment": "In-vivo xenograft model, sensitivity to FK866 by miR-451 expression", "set-up": "species or system mice", "settings": "for change in tumor growth between non-treated and treated group: 15 mg/kg once a day for 5 days repeated weekly", "description": "The effect of miR-451 expression levels on efficacy of NAMPT inhibitor was evaluated in an in-vivo xenograft mouse model as in Example 4A. The sensitivity of each prostate cancer cell line (miR-451, antagomiR-451 and scramble miR control) to FK866 treatment was examined in vivo. Twenty mice were injected with each cell line and were divided into two groups: 10 mice were treated with FK866 (15 mg/kg) once a day for 5 days repeated weekly and 10 served as controls, in which no NAMPT inhibitor was injected. The volume of the tumors was measured daily and mice were treated with FK866 from the day all tumors were clinically evident. Treatment with the drug started from day 13 and within 5 days of treatment a change in tumor size was observed between the antagomiR-451 group treated with FK866 and the antagomiR-451 receiving no treatment (FIG. 5A)."}, "miR-451 [5]": {"tested_on": "miR-451", "experiment": "miR-451 expression by RT-qPCR in stable transfected lines", "format": "cell-based", "description": "The effect of miR-451 expression level on prostate cancer (PC-3), and breast cancer (MCF7) cell line tumor cells was evaluated in-vitro. Stable lines of each malignancy expressing miR-451 mimic and antagomiR-451 were obtained and transfected as in example 1. miR-451 expression levels in each cell line were validated by quantitative Real Time PCR (RT-qPCR). Total RNA was isolated from 10^7 cells using Qiagen RNeasy isolation kit according to the manufacturer's instruction (Qiagen, Hilden, Germany). 100 ng RNA was converted to cDNA using universal cDNA synthesis kit (Exiqon, Vedbaek, Denmark). RT-qPCR for the miR-451 was performed using Locked-nucleic Acid (LNA™) primers sets (Exiqon, Vedbaek, Denmark). 5S Ribosomal RNA was used as a reference gene. The RT-qPCR reactions were performed in duplicates on the LightCycler 480 (Roche, Rotkreuz, Switzerland) apparatus. The results were expressed as relative expression using the delta Ct method."}, "MCF7 cells": {"tested_on": "MCF7 cells", "experiment": "In-vivo xenograft model, tumor growth by miR-451 expression", "settings": "MCF7 xenograft in NSG mice; end of experiment; antagomiR-451 cells compared with miR-451 mimic", "description": "(§2) The effect of miR-451 expression levels on tumor cell growth was evaluated in an in-vivo xenograft mice model using MCF7 cells and PC3 cells. Ten million cells harboring antagomiR-451 and miR-451 mimic were injected subcutaneously into the right flanks of 6-8 weeks-old immunodeficient NSG (NOD scid gamma) mice. Ten mice were injected with the MCF7 antagomiR-451 cell line and 11 mice were injected with the miR-451 mimic line. Ten mice were injected with the PC3 antagomiR-451 cell line and the PC3 miR-451 mimic cell line and 8 with the scrambled miR control cell line. The volume of the tumors was measured daily from the day the tumors were clinically evident in all mice."}, "PC3 cells": {"tested_on": "PC3 cells", "experiment": "In-vivo xenograft model, tumor growth by miR-451 expression", "settings": "PC3 xenograft in NSG mice; end of experiment; antagomiR-451 cells compared with miR-451 mimic", "description": "as §2"}, "miR-451 [6]": {"tested_on": "miR-451", "experiment": "miR expression after transient transfection with miR-451 mimic", "format": "cell-based", "settings": "PC-3, Caco-2, MCF7 cells transiently transfected, 200 pmol; compared to control cells transfected with scramble miR", "description": "(§3) A study was performed to determine if NAMPT is regulated by miR-451 in a representative cell line of each malignancy. Cells comprising prostate cancer (PC-3), colon cancer (Caco-2) and breast cancer (MCF7) cell lines were transiently transfected with a miR-451 mimic while “scrambled” miR-451 served as a control. The prostate cancer (PC-3), colon cancer (Caco-2), and breast cancer (MCF7) cells were obtained from ATCC and cultured according to ATCC growth recommendation. Two hundred pmol miR-451 mimic and 200 pmol scramble miR (IDT, Jerusalem, Israel) were transiently transfected by JETPRIME (Polyplus-transfection) into cells according to manufacturer's instructions.\nNAMPT protein expression was determined using FACS as follows: […]"}, "NAMPT": {"tested_on": "NAMPT", "experiment": "NAMPT protein expression by FACS in transfected cells", "format": "cell-based", "settings": "PC-3, Caco-2 and MCF7 cell lines; 48 hours after transfection; compared to control scramble-miR cells", "description": "as §3\nOne to two million transfected cells were collected 48 hours after transfection and fixed using 500 μl BD phosflow fix buffer I (BD Biosciences, San Jose, Calif., USA) for 15 minutes. Then, pellets were washed twice using PBS and resuspended in 500 μl methanol. Samples were incubated for 2 hours in −20° C. […] The cells were analyzed on flow cytometer (FACSCalibur, Becton Dickinson, Le Pont-De-Claix, France) using BD CellQuest™ Pro software.\nFIG. 1 presents NAMPT protein expression level analyzed by FACS using a specific anti-NAMPT antibody in prostate cancer (PC-3), colon cancer (Caco-2) and breast cancer (MCF7) cell lines."}},
  "data": [
    {"compound": "O=C(/C=C/c1cccnc1)NCCCCC1CCN(C(=O)c2ccccc2)CC1", "note": "[FK866]", "values": [
      {"measurement": "cell viability", "setting": "[1]", "value": "gradual decrease in cell viability"},
      {"measurement": "cell viability", "setting": "[2]", "value": "gradual decrease in cell viability"},
      {"measurement": "cell viability", "setting": "[3]", "value": "gradual decrease in cell viability"},
      {"measurement": "time of treatment until change in tumor size observed vs no treatment", "setting": "[4]; PC3 antagomiR-451 group, treatment started from day 13, 15 mg/kg", "value": "≤ 5", "unit": "days"},
      {"measurement": "change in tumor growth between non-treated and treated group", "setting": "[4]; mice injected with PC3 antagomiR-451 cells", "value": "major change in tumor growth"},
      {"measurement": "change in tumor growth between non-treated and treated group", "setting": "[4]; mice injected with PC3 miR-451 mimic cells", "value": "moderate to almost no change in tumor growth"},
      {"measurement": "change in tumor growth between non-treated and treated group", "setting": "[4]; mice injected with PC3 scramble miR control cells", "value": "moderate to almost no change in tumor growth"}
    ]},
    {"compound": "antagomiR-451: SEQ ID NO: 3 is the nucleotide sequence of antagomiR-451 (antisense AATGATCTGTAACGGTTT; listed as DNA, chemistry not given here)", "values": [
      {"measurement": "decrease in miR-451 expression", "setting": "miR-451 [5]; PC3 cells, compared to PC3 control cells", "value": 67, "unit": "%"},
      {"measurement": "tumor volume", "setting": "MCF7 cells", "value": "significant increase in tumor volume"},
      {"measurement": "tumor volume", "setting": "PC3 cells", "value": "significant increase in tumor volume"}
    ]},
    {"compound": "miR-451 mimic: SEQ ID NO: 1 is the nucleotide sequence of miR-451 mimic (AAACCGUUACCAUUACUGAGUU; listed as RNA, chemistry not given here)", "values": [
      {"measurement": "level in miR-451", "setting": "miR-451 [5]; MCF7 cells, mimic compared with MCF7 cells transfected with antagomiR-451", "value": "twice as high"},
      {"measurement": "increase in miR-451 expression", "setting": "miR-451 [5]; PC3 cells, compared with control (PC3 cells transfected with miR scramble)", "value": "tenfold increase"},
      {"measurement": "increase in the expression levels of the miR", "setting": "miR-451 [6]", "value": 3, "unit": "fold"},
      {"measurement": "NAMPT protein expression level", "setting": "NAMPT", "value": "reduction in NAMPT expression"}
    ]}
  ]
}
